Results taken from PMC12812255 (ACS infectious diseases, 2025).
Values after ≈ are worked out from the molar mass of the structure shown. Read-outs that look alike come from different tables or passages of the source.

Experiments:
MtbADSL [1] = biological target: T1, MtbADSL (Mycobacterium tuberculosis, UniProt I6XWA1); assay: PPDK-luciferase coupling Mtb ADSL enzyme assay; assay type: biochemical
MtbADSL [2] = biological target: T1, MtbADSL; assay: Fluorescence polarization; assay type: biochemical
[3] = biological target: coupling enzymes, PPDK and luciferase; assay: ADSL-free PPDK-luciferase coupling enzyme assay; assay type: biochemical, Clostridium symbiosum (PPDK); firefly (luciferase); conditions: read-out: IC50 ADSL-free; no ADSL, AMP 10 μM as substrate
MtbADSL [4] = biological target: T1, MtbADSL; assay: AMP-Glo Mtb ADSL assay; assay type: biochemical
human ADSL (huADSL) = biological target: T2, human ADSL (huADSL) (Homo sapiens, UniProt P30566); assay: Human ADSL PPDK-AMP assay; assay type: biochemical; conditions: for SI, selectivity index, IC50-human/IC50-Mtb: PPDK-coupling assay
T2 sequence (P30566 1-484): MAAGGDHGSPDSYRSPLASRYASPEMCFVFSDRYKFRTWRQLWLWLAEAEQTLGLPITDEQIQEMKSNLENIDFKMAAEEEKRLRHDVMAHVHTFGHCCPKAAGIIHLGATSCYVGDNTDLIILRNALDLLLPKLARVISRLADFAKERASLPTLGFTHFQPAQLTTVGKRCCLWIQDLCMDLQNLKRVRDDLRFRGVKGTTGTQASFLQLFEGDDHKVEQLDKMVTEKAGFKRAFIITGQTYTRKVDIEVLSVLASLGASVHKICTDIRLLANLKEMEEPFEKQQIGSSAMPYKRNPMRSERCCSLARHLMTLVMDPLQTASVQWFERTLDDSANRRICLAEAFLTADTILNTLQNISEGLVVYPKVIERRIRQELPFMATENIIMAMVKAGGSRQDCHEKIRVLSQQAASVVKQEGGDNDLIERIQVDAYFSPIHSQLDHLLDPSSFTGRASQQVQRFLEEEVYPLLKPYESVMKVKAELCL

M. tuberculosis H37Ra = assay: Antibacterial susceptibility, broth dilution, AlamarBlue; assay type: cell-based; conditions: Mycobacterium tuberculosis, read-out: MIC H37Ra
M. tuberculosis H37Rv = assay: Antibacterial susceptibility, OD600, MIC estimated as EC90; assay type: cell-based; conditions: Mycobacterium tuberculosis, read-out: MIC H37Rv (estimated by EC90)
MtbADSL [5] = biological target: T1, MtbADSL; assay: Protein thermal shift assay; assay type: binding; conditions: compound together with 4-HNE, 10 μM
MtbADSL [6] = biological target: T1, MtbADSL; assay: Gel-based thermal shift assay; assay type: binding; conditions: 15 or 30 μM compound, MtbADSL 5 μM
in vitro [7] = conditions: human
in vitro [8] = conditions: human, CC50 CCF-STTG1
[9] = tested on: intracellular Mtb H37Ra in RAW264.7 macrophages; assay: Phagocytosis assay, intracellular bacterial load in RAW264.7 macrophages
Mtb H37Ra = assay: AMP rescue assay; assay type: cell-based, Mycobacterium tuberculosis; conditions: compound at MIC, AMP 0-5 mM, 7 days
Mycobacterium abscessus = conditions: cited from earlier work
Cytotoxicity CCK-8 [10] = conditions: human
A549 cells = assay: Cytotoxicity CCK-8; conditions: at the MIC determined for H37Rv
Cytotoxicity CCK-8 [11] = conditions: human, HEK293 cells
Cytotoxicity CCK-8 [12] = conditions: human, CCF-STTG1 cells, CC50 CCF-STTG1, 48 h

| SMILES | IC50 (MtbADSL [1]) | IC50 (MtbADSL [2]) | IC50 [3] | IC50 (MtbADSL [4]) | IC50 (human ADSL (huADSL)) | MIC (M. tuberculosis H37Ra; 168 h) | MIC (M. tuberculosis H37Ra) | MIC (M. tuberculosis H37Rv) | Protection of MtbADSL from heat-induced denaturation and aggregation (MtbADSL [6]) | Reduction of intracellular Mtb growth ([9]; 5 μM) | Reduction of intracellular Mtb growth ([9]; 15 μM) | further results |
| --- | --- | --- | --- | --- | --- | --- | --- | --- | --- | --- | --- | --- |
| CCCCCC(O)/C=C/C=O (stereo not shown) [4-HNE, 4-hydroxynonenal] | – | – | – | – | – | – | – | – | – | – | – | IC50 (MtbADSL [1]; read-out: IC50-Mtb PPDK, PPDK-luciferase coupling assay, SAMP 20 μM): 2.6 µM |
| O=C(O)Cc1cc(I)c(Oc2cc(I)c(O)c(I)c2)c(I)c1 [Tetrac, tetraiodothyroacetic acid] | 4.8 µM | 13 µM | 24.5 µM | 1.6 µM | 22.4 µM | 6.2 µg/mL | 8.3 µM | 30 µM (≈ 22.4 µg/mL) | dose-dependent protection | ~ 1 log | ~ 2.5 log | SI, selectivity index, IC50-human/IC50-Mtb (human ADSL (huADSL); listed as TT): 4.7; Reduction of Tm on co-incubation with 4-HNE (MtbADSL [5]): ~ 0.6 °C; viability at 48 h (in vitro [7]): ~71%; CC50 at 48 h (in vitro [8]): > 200 µM |
| Oc1c(Cl)cc(Cl)cc1Sc1cc(Cl)cc(Cl)c1O [bithionol] | 1.6 µM | 6.2 µM | 21.6 µM | 1.2 µM | 14.7 µM | 3.1 µg/mL | 8.7 µM | 28 µM (≈ 9.97 µg/mL) | dose-dependent protection | ~ 2.3 log | 4.6 log | SI, selectivity index, IC50-human/IC50-Mtb (human ADSL (huADSL)): 9.2; AMP concentration at which growth is rescued (Mtb H37Ra): 5.0 mM; MIC against Mycobacterium abscessus (Mycobacterium abscessus): 0.625 to 2.5 µM; CC50 at 48 h (Cytotoxicity CCK-8 [10]): 32.4 µM; Reduction of A549 cell viability (A549 cells): ~ 45%; CC50 at 48 h (Cytotoxicity CCK-8 [11]): 19.3 µM; CC50 at 48 h (Cytotoxicity CCK-8 [12]): ~139 µM |
